Source: patent US12325867B2, “Organoid produced using carrier for cell culture, and method for evaluating drug toxicity using same” (Korea Research Institute of Chemical Technology, priority 2018, dated 2025)

System: artificial myocardial structure (cardiac organoid)
Experiment: contractile force-based cardiac toxicity assessment using the artificial myocardial structure
Type: cell-based, human
From the text: Furthermore, after additionally treating an artificial myocardial structure prepared by coculturing gelatin oil capsules and cardiomyocytes with various drugs, contractile forces of the drug-treated artificial myocardial structure were checked.

## CC(C)NCC(O)c1ccc(O)c(O)c1 (stereo not drawn) [Isopreterenol]
Group treated with 10 nM
  beat rates: accelerated
  contractile forces: changed strongly

## COc1ccc(CCN(C)CCCC(C#N)(c2ccc(OC)c(OC)c2)C(C)C)cc1OC (stereo not drawn) [verapamil]
Group treated with 125 nM
  beat rates: slow down and become somewhat irregular
